Assay results taken from patent publication US20210186905A1, “ENHANCING T-CELL FUNCTION AND TREATING A T-CELL DYSFUNCTIONAL DISORDER WITH A COMBINATION OF AN LSD INHIBITOR AND A PD-1 BINDING ANTAGONIST” (EpiAxis Therapeutic Pty Ltd, priority 2017, published 2021).
Entries after “also recorded” stand apart in the source; their conditions may differ. Where a name gives a salt, the structure may show the parent alone.

Experiments:
[1] = system: CSV, LSD1p, SNAI1; assay: Immunofluorescence of cancer cells from primary tumor micro-environment, mesenchymal CTC signature panel; format: in vivo, mouse; details: cancer cells from primary TME; % change relative to vehicle control
Procedure: (§1) FIG. 2 is a graphical and photographic representation showing the efficacy of dual phenelzine sulfate (phenelzine) and anti-PD1 antibody (PD1) therapy on circulating tumor cells (CTCs) and cancer stem cells (CSC) as well as tumor burden. A. Statistics of tumor volumes on day 15 post-treatment. A Mann-Whitney non-parametric t-test was used to compare control vs other groups (*p<0.02, **p<0.008). Group A=Control, Group C: PD1 (10 mg/kg), Group D: Phenelzine (40 mg/kg), Group F: PD1+Phenelzine. Illustration of the treatment protocol is also shown. […] Representative images for each dataset are shown. […] C. […] (a) Representative images for each dataset are shown. (b) Graph represents the TCFI values for CD133 TNFI for ALDH1A and TFI for ABCB5 measured using ImageJ to select the nucleus/cytoplasm minus background (n>20 individual cells, Group A=Control, Group C: PD1 (10 mg/kg), Group D: Phenelzine (40 mg/kg), Group F: PD1+Phenelzine).
FIG. 11 is a photographic and graphical representation showing triple therapy efficacy on CTC/CSC and tumor burden. […] (b) Graph represents the TCFI values for CD133 TNFI for ALDH1A and TFI for ABCB5 measured using ImageJ to select the nucleus/cytoplasm minus background (n>20 individual cells, Group A=Control, Group B: Abraxane (30 mg/kg), Group C: anti-PD1 (10 mg/kg), Group D: Phenelzine (40 mg/kg), Group E: Abraxane+PD1, Group F: PD1+Phenelzine, Group G: Abraxane+Phenelzine, Group H: Triple Therapy). […]
A total of 2×10^5 cells were injected per mouse into mammary gland in 50 μL of phosphate buffered saline (PBS). […] Tumors were measured using calipers and the tumor volumes (mm3) were calculated using the formula (length×width2)/2. ? arvested cells from primary tumors where then cytospun ? -treated with poly-1-lysine and fixed then stored in PBS for IFA Microscopy Analysis. […] Digital images were analysed using ImageJ software (ImageJ, NIH, Bethesda, Md., USA) to determine the either the Total Nuclear Fluorescent Intensity (TNFI), the Total Cytoplasmic Fluorescent Intensity (TCFI) or total Fluorescent Intensity (TFI).

[2] = system: CD133, ALDH1A and ABCB5; assay: Immunofluorescence of cancer cells from primary tumor micro-environment, chemo-resistant stem-like signature panel; format: in vivo, mouse; details: cancer cells from primary TME; % change relative to vehicle control
Procedure: as §1
FIG. 11 is a photographic and graphical representation showing triple therapy efficacy on CTC/CSC and tumor burden. A. Statistics of tumor volumes on day 15 post-treatment. […] (b) Graph represents the TCFI values for CD133 TNFI for ALDH1A and TFI for ABCB5 measured using ImageJ to select the nucleus/cytoplasm minus background (n>20 individual cells, Group A=Control, Group B: Abraxane (30 mg/kg), Group C: anti-PD1 (10 mg/kg), Group D: Phenelzine (40 mg/kg), Group E: Abraxane+PD1, Group F: PD1+Phenelzine, Group G: Abraxane+Phenelzine, Group H: Triple Therapy).
Next, the cancer cells were assessed for expression of a chemo-resistant, stem-like biomarker signature biomarker panel (CD133, ALDH1A and ABCB5).
A total of 2×10^5 cells were injected per mouse into mammary gland in 50 μL of phosphate buffered saline (PBS). […] Tumors were measured using calipers and the tumor volumes (mm3) were calculated using the formula (length×width2)/2. ? arvested cells from primary tumors where then cytospun ? -treated with poly-1-lysine and fixed then stored in PBS for IFA Microscopy Analysis. […]

NNCCc1ccccc1 (racemic) [phenelzine sulfate, (±)-2-phenylethylhydrazine] was tested, and the SNAI1 expression [1] was “strong inhibition; also recorded: stronger inhibition”, the “expression of CSV” value [1] was “strong inhibition; also recorded: stronger inhibition” and the “nuclear expression of LSD1” value [1] was “strong inhibition; also recorded: stronger inhibition”. The “expression of ABCB5” value [2] was “strongly inhibited”, the “expression of ALDH1A” value [2] was “did not significantly affect” and the “expression of CD133” value [2] was “did not significantly affect”.
